Measurements as given in US20050170015A1 (priority 2000, published 2005).

Experiments:
[1] = Ex# E048; oral 40 mg/kg; 0/8 tumors
[2] = system: RIF-1 murine fibrosarcoma; test: RIF-1 tumor growth delay, thiocolchicine alone and with cisplatin, camptothecin or amonafide (Example 6); assay type: in vivo, C3H mice
Method: Cisplatin for Injection, USP, was obtained as the commercial product from Bristol Laboratories (Platinol®, Lot No. K1F26A). Camptothecin was obtained from Boehinger-Ingelheim Lot 142088. Amonafide dihydrochloride was prepared in house, in a solution of 20 mg/ml. 0.9% Sodium Chloride for Injection, USP (saline) was manufactured by Abbott Laboratories (Lot No. 55-199-DK). Sterile Water for Injection, USP (WFI) was manufactured by Lyphomed, Inc. (Lot No. 390849). DMSO was obtained from Sigma (St. Louis, Mo.). DMF (dimethylformamide) was obtained from Sigma (St. Louis, Mo.). PEG400 was obtained from Sigma (St. Louis, Mo.).
For preparation of cisplatin formulation, the contents of a 10-mg vial of lyophilized CDDP (Cisplatin for Injection) was resuspended with 10 mL WFI to produce a 1 mg/mL CDDP suspension.
Camptothecin was prepared in a solution of DMSO at 0.75 mg/ml.
This was further diluted using saline to […].
Amonafide was diluted to 15 mg/ml with saline.
Food and water were available ad libitum.
Tumors: The RIF-1 murine fibrosarcoma cell line was maintained in in vitro culture (Wayrnouth medium supplemented with 20% fetal bovine serum) at 37° C. in a humidified 5% CO2 incubator. Log-phase RIF-1 cells were trypsinized and harvested from cell culture flasks to yield a concentration of 4×10^6 cells/mL, then injected intradermally in a volume of 50 μL (equivalent to 2×10^5 cells per injection) into both flanks of each mouse. Nine days later, when tumors reached approximately 100 mm^3 in size, the animals were randomized to different treatment groups.
Evaluation of Tumor Growth Delay: Tumors were measured three times weekly for up to 22 days with Vernier calipers. Tumor volume (cubic millimeters, mm^3) was calculated according to the formula: [formula] in which D1-3 are perpendicular diameters measured in millimeters (mm). Tumor volume quadrupling time (TVQT), defined as the time required for a tumor to grow to four times (4×) its initial volume (at the time of treatment), was used as a study endpoint.
The TVQT was determined for each treatment group and expressed in days as the mean±standard error (SE).

[3] = Ex# E031, IP 4 mg/kg, 4/8 tumors
[4] = Ex# E048, oral 20 mg/kg, 12/16 tumors

SMILES: COc1cc2c(c(OC)c1OC)-c1ccc(SC)c(=O)cc1[C@@H](NC(C)=O)CC2 [Thiocolchicine, (S)-N-[5,6,7,9-Tetrahydro-1,2,3-trimethoxy-10-(methylthio)-9-oxobenzo[a]heptalen-7-yl]-acetamide]
- Mortality (printed in the Days to 4× column) [1]: All Died
- Days to 4× (ave ± SE) ([2]; Ex# E031, IP 1 mg/kg): 8.7 ± 0.4 days
- Days to 4× Median ([2]; Ex# E031, IP 1 mg/kg): 8.7 days
- Delay ([2]; Ex# E031, IP 1 mg/kg): 2.08 days
- T/C ([2]; Ex# E031, IP 1 mg/kg): 1.3
- Days to 4× (ave ± SE) ([2]; Ex# E031, IP 2 mg/kg): 8.9 ± 0.9 days
- Days to 4× Median ([2]; Ex# E031, IP 2 mg/kg): 8.1 days
- Delay ([2]; Ex# E031, IP 2 mg/kg): 1.48 days
- T/C ([2]; Ex# E031, IP 2 mg/kg): 1.3
- Days to 4× (ave ± SE) [2, 3]: 13.2 ± 1.2 days
- Days to 4× Median [2, 3]: 13.4 days
- Delay [2, 3]: 6.77 days
- T/C [2, 3]: 2.0
- Days to 4× (ave ± SE) ([2]; Ex# E047, IP 1 mg/kg): 10.88 ± 1.43 days
- Days to 4× Median ([2]; Ex# E047, IP 1 mg/kg): 10.13 days
- Delay ([2]; Ex# E047, IP 1 mg/kg): 2.57 days
- T/C ([2]; Ex# E047, IP 1 mg/kg): 1.4
- Days to 4× (ave ± SE) ([2]; Ex# E047, IP 1 × 2 mg/kg): 12.49 ± 0.52 days
- Days to 4× Median ([2]; Ex# E047, IP 1 × 2 mg/kg): 13.16 days
- Delay ([2]; Ex# E047, IP 1 × 2 mg/kg): 5.60 days
- T/C ([2]; Ex# E047, IP 1 × 2 mg/kg): 1.7
- Days to 4× (ave ± SE) ([2]; Ex# E047, Oral 10 mg/kg): 11.78 ± 2.08 days
- Days to 4× Median ([2]; Ex# E047, Oral 10 mg/kg): 9.11 days
- Delay ([2]; Ex# E047, Oral 10 mg/kg): 1.56 days
- T/C ([2]; Ex# E047, Oral 10 mg/kg): 1.6
- Days to 4× (ave ± SE) ([2]; Ex# E047, Oral 10 × 2 mg/kg): 13.65 ± 1.60 days
- Days to 4× Median ([2]; Ex# E047, Oral 10 × 2 mg/kg): 13.29 days
- Delay ([2]; Ex# E047, Oral 10 × 2 mg/kg): 5.73 days
- T/C ([2]; Ex# E047, Oral 10 × 2 mg/kg): 1.8
- Days to 4× (ave ± SE) ([2]; Ex# E048, oral 10 mg/kg): 10.14 ± 1.15 days
- Days to 4× Median ([2]; Ex# E048, oral 10 mg/kg): 9.01 days
- Delay ([2]; Ex# E048, oral 10 mg/kg): 2.77 days
- T/C ([2]; Ex# E048, oral 10 mg/kg): 1.6
- Days to 4× (ave ± SE) [2, 4]: 12.34 ± 0.75 days
- Days to 4× Median [2, 4]: 11.52 days
- Delay [2, 4]: 5.28 days
- T/C [2, 4]: 1.9
